Legend:
Type in all cases: in vivo
[1] = test system: soybean (Glycine max); assay: Test E greenhouse herbicide test, pre- and postemergence
Description: Seeds of plant species selected from corn (Zea mays), soybean (Glycine max), velvetleaf (Abutilon theophrasti), lambsquarters (Chenopodium album), wild poinsettia (Euphorbia heterophylla), pigweed, palmer (palmer pigweed, Amaranthus palmeri), waterhemp (common waterhemp, Amaranthus rudis), surinam grass (Brachiaria decumbens), crabgrass, large (large crabgrass, Digitaria sanguinalis), crabgrass, Brazilian (Brazilian crabgrass, Digitaria horizontalis), panicum, fall (fall panicum, Panicum dichotomiflorum), foxtail, giant (giant foxtail, Setaria faberii), foxtail, green (green foxtail, Setaria viridis), goosegrass (Eleusine indica), johnsongrass (Sorghum halepense), ragweed (common ragweed, Ambrosia elatior), barnyardgrass (Echinochloa crus-galli), sandbur (southem sandbur, Cenchrus echinatus), arrowleaf sida (Sida rhombifolia), Italian ryegrass (Lolium multiflorum), dayflower (Virginia (VA) dayflower, Commelina virginica), field bindweed (Convolvulus arvensis), momingglory (Ipomoea coccinea), nightshade (eastern black nightshade, Solanum ptycanthum), kochia (Kochia scoparia), nutsedge, yellow (yellow nutsedge, Cyperus esculentus), horseweed (Conyza canadensis), and beggarticks (hairy beggarticks, Bidens pilosa), were planted into a silt loam soil and treated preemergence with test chemicals formulated in a non-phytotoxic solvent mixture which included a surfactant.
At the same time, plants from these crop and weed species and also waterhemp_RES1, (ALS & Triazine resistant common waterhemp, Amaranthus rudis), and waterhemp_RES2, (ALS & HPPD resistant common waterhemp, Amaranthus rudis) were planted in pots containing Redi-Earth® planting medium (Scotts Company, 14111 Scottslawn Road, Marysville, Ohio 43041) comprising spaghnum peat moss, vermiculite, wetting agent and starter nutrients were treated with postemergence applications of test chemicals formulated in the same manner. Plants ranged in height from 2 to 18 cm for postemergence treatments (1- to 4-leaf stage). Treated plants and controls were maintained in a greenhouse for 14 to 21 d, after which time all species were compared to controls and visually evaluated. Plant response ratings, summarized in Table E, are based on a scale of 0 to 100 where 0 is no effect and 100 is complete control. A dash (-) response means no test result.

[2] = test system: foxtail, giant (giant foxtail, Setaria faberii); assay: Test A greenhouse herbicide test, pre- and postemergence
In short: (§1)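 Seeds in loam–sand blend received a preemergence directed soil spray; plants at 2–10 cm, one- to two-leaf stage, received postemergence sprays. Compounds in a non-phytotoxic solvent with surfactant. After about 10 d in a greenhouse, injury rated visually versus untreated controls on a 0–100 scale (100 = complete control).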

[3] = test system: corn (Zea mays); assay: as above; settings: Postemergence; for Corn plant response rating: 0 to 100 scale, 0 is no effect, 100 is complete control
In short: as §1

[4] = test system: pigweed (Amaranthus retroflexus); assay: as above
In short: as §1

[5] = test system: ragweed (common ragweed, Ambrosia elatior); assay: as above
In short: as §1

[6] = test system: ryegrass, Italian (Italian ryegrass, Lolium multiflorum); assay: as above
In short: as §1

[7] = test system: kochia (Kochia scoparia); assay: as above
In short: as §1

[8] = test system: barnyardgrass (Echinochloa crus-galli); assay: as above
In short: as §1

[9] = test system: wheat (Triticum aestivum); assay: as above; settings: Postemergence; for Wheat plant response rating: 0 to 100 scale, 0 is no effect, 100 is complete control
In short: as §1

[10] = 62 g ai/ha, Preemergence, scale 0 to 100 (0 no effect, 100 complete control)
[11] = 125 g ai/ha, Postemergence, scale 0 to 100 (0 no effect, 100 complete control)
[12] = 125 g ai/ha, Preemergence, scale 0 to 100 (0 no effect, 100 complete control)
[13] = Postemergence, 31 g ai/ha, visual, scale 0 no effect to 100 complete control
[14] = Preemergence, 31 g ai/ha, scale 0 to 100, 0 no effect, 100 complete control
[15] = Postemergence, 125 g ai/ha, 0 to 100 scale where 0 is no effect and 100 is complete control
[16] = Postemergence, 500 g ai/ha, 0 to 100 scale, 0 is no effect, 100 is complete control
[17] = Preemergence, 125 g ai/ha, 0 to 100 scale where 0 is no effect and 100 is complete control
[18] = Preemergence, 500 g ai/ha, 0 to 100 scale where 0 is no effect and 100 is complete control
[19] = 125 g ai/ha, 0 to 100 scale where 0 is no effect and 100 is complete control
[20] = Preemergence, 500 g ai/ha, 0 to 100 scale, 0 no effect, 100 complete control
[21] = Postemergence, 500 g ai/ha, visual rating after approx. 10 d, 0 to 100 scale (0 no effect, 100 complete control)
[22] = 500 g ai/ha, visual rating after approx. 10 d, 0 to 100 scale (0 no effect, 100 complete control)

SMILES | Plant response rating, Foxtail, Giant [2, 15] | Foxtail, Giant plant response rating [2, 17] | Plant response rating, Foxtail, Giant [2, 18] | Plant response rating, Corn [3, 19] | Plant response rating, Pigweed [4, 15] | Pigweed plant response rating [4, 17] | Plant response rating, Pigweed [4, 18] | Plant response rating, Ragweed [5, 15] | Ragweed plant response rating [5, 17] | Plant response rating, Ragweed [5, 18] | Plant response rating, Ryegrass, Italian [6, 15] | Ryegrass, Italian plant response rating [6, 17] | Plant response rating, Ryegrass, Italian [6, 18] | Plant response rating, Kochia [7, 15] | Kochia plant response rating [7, 17] | Plant response rating, Kochia [7, 18] | Plant response rating, Barnyardgrass [8, 15] | Barnyardgrass plant response rating [8, 16] | Barnyardgrass plant response rating [8, 17] | Plant response rating, Wheat [9, 19] | also measured
Cc1ccc2sc(Br)c(-c3c(O)c(C)nn(C)c3=O)c2c1 [Compound 79] | 70 | 90 | 90 | 0 | 90 | 100 | 100 | 90 | 80 | 80 | 80 | 80 | 100 | 80 | 70 | 90 | 50 | 80 | 50 | 0 | Plant response rating, Soybean ([1]; 62 g ai/ha, Postemergence, scale 0 to 100 (0 no effect, 100 complete control)): 10; Plant response rating, Soybean [1, 10]: 50; Plant response rating, Soybean [1, 11]: 15; Plant response rating, Soybean [1, 12]: 40; Plant response rating, Soybean ([1]; 250 g ai/ha, Postemergence, scale 0 to 100 (0 no effect, 100 complete control)): 10; Plant response rating, Soybean [1, 13]: 0; Plant response rating, Soybean [1, 14]: 40; Plant response rating, Soybean ([1]; Preemergence, 250 g ai/ha, visual, scale 0 no effect to 100 complete control): 50; Foxtail, Giant plant response rating [2, 16]: 80; Corn plant response rating ([3]; 500 g ai/ha): 0; Pigweed plant response rating [4, 16]: 90; Ragweed plant response rating [5, 16]: 90; Ryegrass, Italian plant response rating [6, 16]: 90; Kochia plant response rating [7, 16]: 90; Plant response rating, Barnyardgrass [8, 20]: 70; Wheat plant response rating ([9]; 500 g ai/ha): 0
COC(=O)Oc1c(C)nn(C)c(=O)c1-c1c(C)sc2ccc(C)cc12 [Compound 80] | 80 | 80 | 90 | 0 | 90 | 90 | 100 | 80 | 80 | 90 | 80 | 90 | 100 | 90 | 90 | 90 | 70 | 80 | 70 | 0 | Plant response rating, Soybean [1, 10]: 0; Plant response rating, Soybean [1, 12]: 0; Plant response rating, Soybean ([1]; Preemergence, 16 g ai/ha, scale 0 to 100, 0 no effect, 100 complete control): 0; Plant response rating, Soybean [1, 14]: 0; Foxtail, Giant plant response rating [2, 16]: 80; Corn plant response rating ([3]; 500 g ai/ha): 0; Pigweed plant response rating [4, 16]: 90; Ragweed plant response rating [5, 16]: 90; Ryegrass, Italian plant response rating [6, 16]: 90; Kochia plant response rating [7, 16]: 90; Plant response rating, Barnyardgrass [8, 20]: 90; Wheat plant response rating ([9]; 500 g ai/ha): 0
CC(=O)Oc1c(C)nn(C)c(=O)c1-c1c(C)cc(C)c2ccccc12 [Compound 99] | 40 | 50 | 80 | 20 | 70 | 100 | 100 | 100 | 80 | 80 | 100 | 100 | 100 | 30 | 20 | 70 | 20 | 90 | 60 | 20 | Plant response rating, Soybean [1, 11]: 30; Plant response rating, Soybean ([1]; Postemergence, 16 g ai/ha, visual, scale 0 no effect to 100 complete control): 0; Plant response rating, Soybean [1, 13]: 0; Plant response rating, Foxtail, Giant [2, 21]: 90; Plant response rating, Corn [3, 22]: 40; Plant response rating, Pigweed [4, 21]: 90; Plant response rating, Ragweed [5, 21]: 100; Plant response rating, Ryegrass, Italian [6, 21]: 100; Plant response rating, Kochia [7, 21]: 70; Plant response rating, Barnyardgrass [8, 18]: 90; Plant response rating, Wheat [9, 22]: 30

Reference: patent publication US10597388B2, “Pyridazinone herbicides” (FMC CORPORATION, priority 2014, dated 2020)
